Test results as given in US20150143553A1, “Methods And Compositions Comprising A Drosophila Model Of Amyotrophic Lateral Sclerosis” (priority 2013, published 2015).
Where a name gives a salt, the structure may show the parent alone.

Assays:
[1] = tested on: Drosophila larvae expressing G298S TDP-43 in motor neurons; experiment: Drug screen: rescue of lethality caused by G298S TDP-43 expression in motor neurons (D42 Gal4); type: in vivo; settings: transgene G298S
Source text: (§1) […] Larvae expressing TDP-43 (wild type or mutant, as shown) are raised on drug containing food.
(§2) […] Larvae expressing TDP-43 (wt or mutant) were raised on drug containing food.
Using a Drosophila model of ALS based on TDP-43 that recapitulates several aspects of the disease pathophysiology (33, 35), a drug screen aimed at identifying FDA approved compounds with neuroprotective potential in vivo were designed (FIG. 37A). […] This phenotype was used to screen for drug candidates with therapeutic potential as determined by their ability to rescue pupal lethality and produce viable adults with extended wings (FIG. 37A).
Larvae expressing TDP-43 in motor neurons (D42>TDP-43) were raised on fly food containing different amounts of drug (1, 10 and 25 μM, see Materials and Methods for details) or Dimethyl Sulfoxide (DMSO) as vehicle control (FIG. 37B, C).
(§3) UAS TDP-43 males were crossed with D42-Gal4 female virgins on fly food containing either DMSO or pioglitazone. For DMSO controls, the same volume of DMSO as the corresponding drug concentration was added. Bromophenol blue was added to a final concentration of approximately 0.02% to ensure homogeneity. Crosses were made on drug food with 3 female virgins and 2 males in each vial, and were maintained at 25° C. unless noted. The parents were discarded after 5-7 days then the vials were screened for adult progeny with straight wings from day 14 to day 25. All adults were screened for TDP-43 expression by visualizing the YFP tag. Total number of pupae was counted on day 25. Percent survival was calculated using the formula (total number of straight-winged adults/total number of pupae)×100. All experiments were performed in triplicate.

[2] = tested on: Drosophila larvae expressing wild-type TDP-43 in motor neurons; experiment: Drug screen: rescue of lethality caused by wild-type TDP-43 expression in motor neurons (D42 Gal4); type: in vivo; settings: transgene WT2
Source text: as §1, §2
Using a Drosophila model of ALS based on TDP-43 that recapitulates several aspects of the disease pathophysiology (33, 35), a drug screen aimed at identifying FDA approved compounds with neuroprotective potential in vivo were designed (FIG. 37A). […] This phenotype was used to screen for drug candidates with therapeutic potential as determined by their ability to rescue pupal lethality and produce viable adults with extended wings (FIG. 37A). […]
as §3

| SMILES | Preliminary rescue result: adults with normal wings ([2]; 30 μM in fly food) | also measured |
| --- | --- | --- |
| CCN(CC)C(=O)/C(C#N)=C/c1cc(O)c(O)c([N+](=O)[O-])c1 [Entacapone] | – | Preliminary rescue result: adults with normal wings ([1]; 50 μM in fly food): 5 Adult Normal Wings Adults |
| CN(Cc1cc(Br)cc(Br)c1N)C1CCCCC1.Cl [Romhexine Hydrochloride] | – | Preliminary rescue result: adults with normal wings ([1]; 30 μM in fly food): 1/2 Adult Normal Wings |
| C[C@H](CCC(=O)O)[C@H]1CC[C@H]2[C@@H]3[C@H](O)C[C@@H]4C[C@H](O)CC[C@]4(C)[C@H]3CC[C@]12C [Chenodiol] | – | Preliminary rescue result: adults with normal wings ([1]; 50 μM in fly food): 1 Adult Normal Wings Adults |
| CN1CCN(C2=Nc3cc(Cl)ccc3Nc3ccccc32)CC1 [Clozapine] | – | Preliminary rescue result: adults with normal wings ([1]; 50 μM in fly food): 1 Adult Normal Wings Adults |
| COc1cc2ncnc(Nc3ccc(F)c(Cl)c3)c2cc1OCCCN1CCOCC1 [Gefitinib] | – | Preliminary rescue result: adults with normal wings ([1]; 50 μM in fly food): 1 Adult Normal Wings Adults |
| Cc1cc(CC(=O)[O-])n(C)c1C(=O)c1ccc(Cl)cc1.O.O.[Na+] [Zomepirac Na Salt] | 3 Adult Normal Wings Adults | – |
| C=CCOc1ccccc1OCC(O)CNC(C)C (centres unmarked) [Oxprenolol Hcl] | 1 Adult Normal Wings Adults | – |
| CO/N=C(\C(=O)N[C@@H]1C(=O)N2C(C(=O)O)=C(C[N+]3(C)CCCC3)CS[C@H]12)c1csc(N)n1 [Cefepime Hydrochloride] | 2 Adult Normal Wings Adults | – |
| COCCOC(=O)C1=C(C)NC(C)=C(C(=O)OC/C=C/c2ccccc2)C1c1cccc([N+](=O)[O-])c1 (centres unmarked) [Cilnidipine] | 2 Adult Normal Wings Adults | – |
| CC(CNC1CCCCC1)OC(=O)c1ccccc1 (centres unmarked) [Hexylcaine HCl] | 6 Adults Normal Wings | – |
| COc1ccc2cc([C@@H](C)C(=O)[O-])ccc2c1.[Na+] [R-Naproxen Na Salt] | 2 Adult Normal Wings Adults | – |
| CN(C)C(=O)Oc1cccc([N+](C)(C)C)c1 [Neostigmine Bromide] | – | Preliminary rescue result: adults with normal wings ([2]; 50 μM in fly food): 5 Adults Straight Wings |
| CCCCNc1c(C(=O)OCC)c(C)nc2c1cnn2CC [Tracazolate Hydrochloride] | 1 Adult Normal Wings Adults | – |
| NC1CCN(c2c(F)cc3c(=O)c(C(=O)O)cn(C4CC4)c3c2Cl)C1 (centres unmarked) [Clinafloxacin] | 4 Adult Normal Wings Adults | – |
| CCOC(=O)[C@H](CCc1ccccc1)N[C@@H](C)C(=O)N1Cc2ccccc2C[C@H]1C(=O)O [Quinapril Hcl] | 2 Adult Normal Wings Adults | – |
| COc1ccc(C(=O)c2ccccc2O)c(O)c1 [Dioxybenzone] | 14 Adult Normal Wings Adults | – |
| CCCCc1ccc2[nH]c(NC(=O)OC)nc2c1 [Parbendazole] | 2/1 | – |
| CC(=O)Nc1c(I)c(C(=O)N[C@H]2C(O)O[C@H](CO)[C@@H](O)[C@@H]2O)c(I)c(N(C)C(C)=O)c1I (some centres unmarked) [Metrizamide] | – | Preliminary rescue result: adults with normal wings ([2]; 50 μM in fly food): 2 Adults Normal Wings |
| COc1cc(-c2ccc(=O)[nH]n2)ccc1OC(F)F [Zardaverine] | 1 Adult Normal Wings Adults | – |
| Cl.NCC(O)c1ccc(O)cc1 (racemic) [(+,−)-Octopamine HCl] | 5 Adult Normal Wings Adults | – |
| CC(C)(C)NC[C@H](O)COc1ccccc1C1CCCC1 [Penbutolol Sulfate] | 1 Adult Normal Wings Adults | – |

| SMILES | Preliminary rescue result: adults with normal wings ([2]; 30 μM in fly food) | also measured |
| --- | --- | --- |
| Cc1cc(-c2ccccc2)nnc1NCCN1CCOCC1 [Minaprine Dihydrochloride] | – | Preliminary rescue result: adults with normal wings ([2]; 50 μM in fly food): 1 Adult Normal Wings Adults |
| CCN1CCCC1CNC(=O)c1cc(S(N)(=O)=O)ccc1OC (centres unmarked) [Sulpiride] | – | Preliminary rescue result: adults with normal wings ([2]; 50 μM in fly food): 1 Adult Normal Wings Adults |
| Cn1nnnc1SCC1=C(C(=O)[O-])N2C(=O)[C@@H](NC(=O)[C@H](O)c3ccccc3)[C@H]2SC1.[Na+] [Cefamandole Na Salt] | 2/3 Adult Normal Wing | – |
| O=P(O)(O)C(Cl)(Cl)P(=O)(O)O [Clodronate] | – | Preliminary rescue result: adults with normal wings ([2]; 50 μM in fly food): 3 Adult Normal Wings Adults |
| CCCCC(=O)O[C@H]1CC[C@H]2[C@@H]3CCc4cc(O)ccc4[C@H]3CC[C@]12C [Estradiol Valerate] | 1 Adult Normal Wings Adults | – |
| COc1cc2nc(N3CCN(C(=O)C4CCCO4)CC3)nc(N)c2cc1OC.Cl (centres unmarked) [Terazosin HC1] | 3 Adult Normal Wings Adults | – |
| CC[C@H]1OC(=O)[C@H](C)[C@@H](O[C@H]2C[C@@](C)(OC)[C@@H](O)[C@H](C)O2)[C@H](C)[C@@H](O[C@@H]2O[C@H](C)C[C@H](N(C)C)[C@H]2O)[C@](C)(O)C[C@@H](C)CN(C)[C@H](C)[C@@H](O)[C@]1(C)O [Azithromycin] | 1 Adult Normal Wings Adults | – |
| CN1[C@@H]2CC[C@H]1C[C@@H](OC(c1ccccc1)c1ccccc1)C2 [Benztropine Mesylate] | 2 Adult Normal Wings Adults | – |
| Cc1onc(-c2c(Cl)cccc2Cl)c1C(=O)N[C@@H]1C(=O)N2[C@@H]1SC(C)(C)[C@@H]2C(=O)O [Dicloxacillin Sodium Salt] | – | Preliminary rescue result: adults with normal wings ([2]; 50 μM in fly food): 1 Adult Normal Wings Adults |
| Nc1ccc(S(N)(=O)=O)cc1 [Sulfanilamide] | – | Preliminary rescue result: adults with normal wings ([2]; 50 μM in fly food): 1 Adult Normal Wings Adults |
| CC(C)Cn1cnc2c(N)nc3ccccc3c21 [Imiquimod] | 2 Adult Normal Wings Adults | – |
| COc1ccc(C(=O)c2ccccc2)c(O)c1 [Oxybenzone] | 1 Adult Normal Wings Adults | – |
| CCn1cc(C(=O)O)c(=O)c2cc(F)c(N3CCNCC3)nc21 [Enoxacin] | – | Preliminary rescue result: adults with normal wings ([2]; 50 μM in fly food): 3 Adult Normal Wings Adults |
| CCOC(=O)O[C@]1(C(=O)COC(=O)CC)CC[C@H]2[C@@H]3CCC4=CC(=O)C=C[C@]4(C)[C@H]3[C@@H](O)C[C@@]21C [Prednicarbate] | 2 Adult Normal Wings Adults | – |
| CN1CCN(c2c(F)cc3c(=O)c(C(=O)O)cn4c3c2SCC4)CC1 [Rufloxacin] | 1 Adult Normal Wings Adults | – |
| N[C@@H](Cc1cc(I)c(Oc2ccc(O)c(I)c2)c(I)c1)C(=O)O [Liothyronine] | 3 Adult Normal Wings Adults | – |
| O=C(COc1ccc(Cl)cc1)N1CCN(Cc2ccc3c(c2)OCO3)CC1 [Fipexide Hydrochloride] | – | Preliminary rescue result: adults with normal wings ([2]; 50 μM in fly food): 1 Adult Normal Wings Adults |
| O=S(=O)(O)CCS [Mesna] | – | Preliminary rescue result: adults with normal wings ([2]; 50 μM in fly food): 4 Adult Normal Wings Adults |
| CCC(=O)[C@@]1(C)[C@H](C)C[C@H]2[C@@H]3CCC4=CC(=O)C=C[C@]4(C)[C@H]3[C@@H](O)C[C@@]21C [Rimexolone] | 1 Adult Normal Wing Adults | – |
| Cc1cc(C(C#N)c2ccc(Cl)cc2)c(Cl)cc1NC(=O)c1cc(I)cc(I)c1O (centres unmarked) [Closantel] | – | Preliminary rescue result: adults with normal wings ([2]; 50 μM in fly food): 2 Adults Normal Wings |
